Entries after “also recorded” stand apart in the source; their conditions may differ.

The values that follow come from article PMC4581874 (PLoS ONE, 2015).

In data set [1] the target is T1, VEGFR-2 (Homo sapiens, UniProt P35968).
T1 construct: purchased Millipore UK Ltd., Dundee, UK (now Eurofins Scientific); KinaseProfiler / IC50 Profiler service
The experiment in a line: In vitro kinase assay, VEGFR-2. In kind it is biochemical. Particulars: for IC50: in vitro kinase assay; for inhibition at 1 µM: mean ± S.D., read-out: % inhibition at 1 μM, VEGFR-2 (h). The procedure: (§1) All kinase assays were carried out using KinaseProfiler^TM and IC50 Profiler^TM (Millipore UK Ltd., Dundee, UK. Now Eurofins Scientific, Dundee, UK). All IC50 data were presented as the mean values. The Curves obtained to determine IC50 values were shown in Supporting Information (S1 Fig).

In data set [2] the target is EGFR (Homo sapiens, UniProt P00533). As to the kind of experiment: In vitro kinase assay, EGFR. Format: biochemical. To be noted: for IC50: in vitro kinase assay, mean values; for inhibition at 1 µM: mean ± S.D., read-out: % inhibition at 1 μM, EGFR(h). As for the experimental part: All kinase assays were carried out using KinaseProfiler^TM and IC50 Profiler^TM (Millipore UK Ltd., Dundee, UK. Now Eurofins Scientific, Dundee, UK). All IC50 data were presented as the mean values.

In data set [3] the test system is HUVECs. The experiment in a line: HUVEC viability assay (cytotoxicity). In kind it is cell-based, human. To be noted: 24 hours. The procedure: HCC827 cells were purchased from the American Type Culture Collection (ATCC, Manassas, VA, USA). Cells were grown in RPMI 1640 (Welgene Inc., Daegu, Republic of Korea) supplemented with 10% fetal bovine serum (FBS) (Welgene Inc.) and 1% penicillin-streptomycin (Gibco®, Life Technologies, Carlsbad, CA, USA) in a humidified 5% CO2 atmosphere at 37°C. Human umbilical vein endothelial cells (HUVECs, ScienCell Research Laboratories, Carlsbad, CA, USA) were cultured in endothelial growth medium-2 (EGM-2; Lonza, Walkersville, MD, USA) from passages 3 to 6.
For the HUVEC viability assay, HUVECs were treated with phosphate-buffered saline (PBS) or the indicated concentrations of VEGF inhibitors in EGM-2 medium for 24 hours. After the cells were washed with PBS, they were counted using an inverted light microscope (Nikon Eclipse Ti-U; Nikon Corp., Tokyo, Japan) in 5 random fields from each well.

For data set [4], the system named is HUVECs. As to the kind of experiment: VEGF-induced tube formation assay. In kind it is cell-based, human. Particulars: VEGF 50 ng/mL, compound 1 μg/mL. As for the experimental part:
For analyzing of the antagonistic response to VEGF, tube formation, scratch wound migration, and cell proliferation assays were performed after the exposure of HUVECs to 50 ng/mL VEGF-A (R&D Systems, Minneapolis, MN), which induced a significant angiogenic response. For the cell proliferation assays, cells were incubated overnight in endothelial basal media (EBM; Lonza, Walkersville, MD, USA) containing 0.5% FBS or supplemented with VEGF-A and/or VEGF inhibitors. The cells were washed with PBS and counted in 4 random microscope fields. The tube formation assay was performed by seeding cells on Matrigel-coated plates (BD Bioscience, Bedford, MA, USA) and incubating in EBM containing 0.5% FBS or supplemented with VEGF-A and/or VEGF inhibitors. After overnight incubation, tubule networks were quantified by measuring the tubule length in 4 random microscope fields. For the analysis of scratch wound migration, confluent cell monolayers grown on 6-well plates were scratched using a micropipette tip. […] Cell migration was observed by optical microscopy and quantified by measuring the number of cells that had migrated from the wound edges.
In (A) and (B), the number of cells was expressed as the fold change with respect to the number of cells seeded at day 0. […]

Data set [5] has as its target T2, cKit (Homo sapiens, UniProt P10721).
T2 construct: purchased Millipore UK Ltd., Dundee, UK (now Eurofins Scientific); KinaseProfiler / IC50 Profiler service
The experiment in a line: In vitro kinase assay, cKit. Format: biochemical. Particulars: 1 μM, mean ± S.D.; read-out: % inhibition at 1 μM, cKit(h). As for the experimental part:
as §1

Data set [6] deals with T3, FGFR1 (Homo sapiens, UniProt P11362).
T3 construct: purchased Millipore UK Ltd., Dundee, UK (now Eurofins Scientific); KinaseProfiler / IC50 Profiler service
As to the kind of experiment: In vitro kinase assay, FGFR1. Particulars: 1 μM, mean ± S.D.; read-out: % inhibition at 1 μM, FGFR1 (h). Format: biochemical. As for the experimental part: as §1

Data set [7] addresses T4, VEGFR-3 (Homo sapiens, UniProt P35916).
T4 construct: purchased Millipore UK Ltd., Dundee, UK (now Eurofins Scientific); KinaseProfiler / IC50 Profiler service
The experiment in a line: In vitro kinase assay, VEGFR-3. Format: biochemical. To be noted: 1 μM, mean ± S.D.; read-out: % inhibition at 1 μM, VEGFR-3 (h). As for the experimental part:
as §1

Data set [8] addresses T5, EGFR (L858R) (Homo sapiens, UniProt P00533, L858R).
T5 construct: purchased Millipore UK Ltd., Dundee, UK (now Eurofins Scientific); KinaseProfiler / IC50 Profiler service
As to the kind of experiment: In vitro kinase assay, EGFR (L858R). To be noted: 1 μM, mean ± S.D.; read-out: % inhibition at 1 μM, EGFR(L858R)(h). Format: biochemical. The procedure:
as §1

Data set [9] addresses T6, FGFR3 (Homo sapiens, UniProt P22607).
T6 construct: purchased Millipore UK Ltd., Dundee, UK (now Eurofins Scientific); KinaseProfiler / IC50 Profiler service
As to the kind of experiment: In vitro kinase assay, FGFR3. Format: biochemical. To be noted: 1 μM, mean ± S.D.; read-out: % inhibition at 1 μM, FGFR3 (h). The procedure: as §1

Data set [10] has as its target T7, VEGFR-1 (Homo sapiens, UniProt P17948).
T7 construct: purchased Millipore UK Ltd., Dundee, UK (now Eurofins Scientific); KinaseProfiler / IC50 Profiler service
As to the kind of experiment: In vitro kinase assay, VEGFR-1. Format: biochemical. Particulars: 1 μM, mean ± S.D.; read-out: % inhibition at 1 μM, VEGFR-1 (h). The procedure:
as §1

Data set [11] deals with T8, PDGFRα (Homo sapiens, UniProt P16234).
T8 construct: purchased Millipore UK Ltd., Dundee, UK (now Eurofins Scientific); KinaseProfiler / IC50 Profiler service
As to the kind of experiment: In vitro kinase assay, PDGFRα. Format: biochemical. To be noted: 1 μM, mean ± S.D.; read-out: % inhibition at 1 μM, PDGFRα (h). The procedure:
as §1

For data set [12], the target named is T9, PDGFRβ (Homo sapiens, UniProt P09619).
T9 construct: purchased Millipore UK Ltd., Dundee, UK (now Eurofins Scientific); KinaseProfiler / IC50 Profiler service
The experiment in a line: In vitro kinase assay, PDGFRβ. In kind it is biochemical. Particulars: 1 μM, mean ± S.D.; read-out: % inhibition at 1 μM, PDGFRβ (h). As for the experimental part: as §1

The test system of data set [13] is HCC827 cells. The experiment in a line: HCC827 cell viability assay. Particulars: Homo sapiens, 72 h, read-out: HCC827 IC50 (anti-proliferative activity). Format: cell-based. The procedure:
HCC827 cells were purchased from the American Type Culture Collection (ATCC, Manassas, VA, USA). […] Human umbilical vein endothelial cells (HUVECs, ScienCell Research Laboratories, Carlsbad, CA, USA) were cultured in endothelial growth medium-2 (EGM-2; Lonza, Walkersville, MD, USA) from passages 3 to 6.
After a 24-hour incubation, the cells were treated with a series of test compound dilutions for 72 hours. Cell viability was assessed using EZ-Cytox (Daeil Lab Service, Seoul, South Korea) according to the manufacturer’s instructions.
Cells were incubated for 72 h with a range of concentrations of MKP101, and cell viability was measured using the WST-1 assay. […] Western blot analysis using antibodies to phosphorylated and total EGFR from a representative experiment is shown. Cells were incubated for 3 h at the indicated concentration. (C) Graph showing the relative intensities of the total and phosphorylated EGFR as determined by band densitometry. IC50, half-maximal inhibitory concentration.

T3 sequence (P11362 22-822): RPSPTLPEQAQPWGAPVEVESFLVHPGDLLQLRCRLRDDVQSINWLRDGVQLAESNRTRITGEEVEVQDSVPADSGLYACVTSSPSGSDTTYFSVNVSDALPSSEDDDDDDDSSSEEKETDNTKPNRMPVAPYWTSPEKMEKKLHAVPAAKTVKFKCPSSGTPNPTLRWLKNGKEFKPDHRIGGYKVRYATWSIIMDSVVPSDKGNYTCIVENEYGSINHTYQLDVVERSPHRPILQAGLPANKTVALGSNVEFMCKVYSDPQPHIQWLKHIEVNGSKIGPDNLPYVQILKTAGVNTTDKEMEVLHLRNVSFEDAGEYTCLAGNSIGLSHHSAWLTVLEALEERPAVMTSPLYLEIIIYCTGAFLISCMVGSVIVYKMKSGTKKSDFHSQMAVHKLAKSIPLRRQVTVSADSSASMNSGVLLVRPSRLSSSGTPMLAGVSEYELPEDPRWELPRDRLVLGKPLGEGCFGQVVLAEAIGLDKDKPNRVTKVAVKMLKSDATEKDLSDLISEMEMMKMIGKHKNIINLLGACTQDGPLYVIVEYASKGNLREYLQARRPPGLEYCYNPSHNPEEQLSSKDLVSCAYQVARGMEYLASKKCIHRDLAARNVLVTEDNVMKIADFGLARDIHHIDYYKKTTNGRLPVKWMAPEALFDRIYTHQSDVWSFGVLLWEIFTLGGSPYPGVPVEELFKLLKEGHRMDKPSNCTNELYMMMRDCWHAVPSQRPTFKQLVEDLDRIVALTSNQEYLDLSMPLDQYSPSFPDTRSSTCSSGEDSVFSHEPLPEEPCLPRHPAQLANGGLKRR
T9 sequence (P09619 33-1106): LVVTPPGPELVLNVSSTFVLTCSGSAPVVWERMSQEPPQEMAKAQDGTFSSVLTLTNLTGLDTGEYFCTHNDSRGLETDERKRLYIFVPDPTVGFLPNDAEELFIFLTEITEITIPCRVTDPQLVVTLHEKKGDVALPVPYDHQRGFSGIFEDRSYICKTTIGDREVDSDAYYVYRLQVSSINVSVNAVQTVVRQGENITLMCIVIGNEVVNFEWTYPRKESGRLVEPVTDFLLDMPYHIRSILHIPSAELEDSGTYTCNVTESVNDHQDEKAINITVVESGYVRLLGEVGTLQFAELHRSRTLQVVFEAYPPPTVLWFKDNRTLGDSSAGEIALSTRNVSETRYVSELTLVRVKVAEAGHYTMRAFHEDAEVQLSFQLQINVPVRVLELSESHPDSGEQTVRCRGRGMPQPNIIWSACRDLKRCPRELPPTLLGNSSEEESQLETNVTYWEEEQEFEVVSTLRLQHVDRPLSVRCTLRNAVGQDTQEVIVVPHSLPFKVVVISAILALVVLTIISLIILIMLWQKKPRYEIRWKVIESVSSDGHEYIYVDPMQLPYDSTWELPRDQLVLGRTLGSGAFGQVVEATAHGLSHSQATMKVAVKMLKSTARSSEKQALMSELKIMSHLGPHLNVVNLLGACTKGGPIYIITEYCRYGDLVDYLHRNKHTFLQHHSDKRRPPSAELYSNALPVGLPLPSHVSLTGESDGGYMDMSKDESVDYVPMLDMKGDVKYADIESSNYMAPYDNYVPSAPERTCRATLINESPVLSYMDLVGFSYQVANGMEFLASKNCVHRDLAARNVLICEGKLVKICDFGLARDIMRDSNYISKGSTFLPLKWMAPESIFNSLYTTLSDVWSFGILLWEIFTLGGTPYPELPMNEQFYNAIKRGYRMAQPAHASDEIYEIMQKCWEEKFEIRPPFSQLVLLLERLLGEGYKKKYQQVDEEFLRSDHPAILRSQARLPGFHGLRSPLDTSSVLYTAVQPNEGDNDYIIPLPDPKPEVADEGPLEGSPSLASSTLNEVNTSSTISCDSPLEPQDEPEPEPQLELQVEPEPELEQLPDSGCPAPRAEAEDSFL
T6 sequence (P22607 23-806): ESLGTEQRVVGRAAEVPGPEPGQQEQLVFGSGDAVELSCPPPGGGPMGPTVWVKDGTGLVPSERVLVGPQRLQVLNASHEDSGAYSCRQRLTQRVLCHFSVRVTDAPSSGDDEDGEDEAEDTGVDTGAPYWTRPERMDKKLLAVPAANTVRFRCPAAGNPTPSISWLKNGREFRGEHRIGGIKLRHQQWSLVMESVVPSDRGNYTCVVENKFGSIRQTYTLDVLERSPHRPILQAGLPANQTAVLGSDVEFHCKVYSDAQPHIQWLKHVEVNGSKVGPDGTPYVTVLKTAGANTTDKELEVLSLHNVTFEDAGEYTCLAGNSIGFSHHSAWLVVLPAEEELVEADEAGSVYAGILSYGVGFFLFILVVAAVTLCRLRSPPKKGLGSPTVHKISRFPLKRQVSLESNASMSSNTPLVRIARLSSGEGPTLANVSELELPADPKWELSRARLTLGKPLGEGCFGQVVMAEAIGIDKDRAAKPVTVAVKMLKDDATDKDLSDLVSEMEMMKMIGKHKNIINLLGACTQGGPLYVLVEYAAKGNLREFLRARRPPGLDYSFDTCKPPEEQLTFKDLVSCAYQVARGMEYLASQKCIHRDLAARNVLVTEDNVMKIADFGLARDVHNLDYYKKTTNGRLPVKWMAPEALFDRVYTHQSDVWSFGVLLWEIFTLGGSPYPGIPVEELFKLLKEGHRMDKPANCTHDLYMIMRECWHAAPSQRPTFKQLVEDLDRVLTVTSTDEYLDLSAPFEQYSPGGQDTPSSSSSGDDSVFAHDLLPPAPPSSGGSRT
T8 sequence (P16234 24-1089): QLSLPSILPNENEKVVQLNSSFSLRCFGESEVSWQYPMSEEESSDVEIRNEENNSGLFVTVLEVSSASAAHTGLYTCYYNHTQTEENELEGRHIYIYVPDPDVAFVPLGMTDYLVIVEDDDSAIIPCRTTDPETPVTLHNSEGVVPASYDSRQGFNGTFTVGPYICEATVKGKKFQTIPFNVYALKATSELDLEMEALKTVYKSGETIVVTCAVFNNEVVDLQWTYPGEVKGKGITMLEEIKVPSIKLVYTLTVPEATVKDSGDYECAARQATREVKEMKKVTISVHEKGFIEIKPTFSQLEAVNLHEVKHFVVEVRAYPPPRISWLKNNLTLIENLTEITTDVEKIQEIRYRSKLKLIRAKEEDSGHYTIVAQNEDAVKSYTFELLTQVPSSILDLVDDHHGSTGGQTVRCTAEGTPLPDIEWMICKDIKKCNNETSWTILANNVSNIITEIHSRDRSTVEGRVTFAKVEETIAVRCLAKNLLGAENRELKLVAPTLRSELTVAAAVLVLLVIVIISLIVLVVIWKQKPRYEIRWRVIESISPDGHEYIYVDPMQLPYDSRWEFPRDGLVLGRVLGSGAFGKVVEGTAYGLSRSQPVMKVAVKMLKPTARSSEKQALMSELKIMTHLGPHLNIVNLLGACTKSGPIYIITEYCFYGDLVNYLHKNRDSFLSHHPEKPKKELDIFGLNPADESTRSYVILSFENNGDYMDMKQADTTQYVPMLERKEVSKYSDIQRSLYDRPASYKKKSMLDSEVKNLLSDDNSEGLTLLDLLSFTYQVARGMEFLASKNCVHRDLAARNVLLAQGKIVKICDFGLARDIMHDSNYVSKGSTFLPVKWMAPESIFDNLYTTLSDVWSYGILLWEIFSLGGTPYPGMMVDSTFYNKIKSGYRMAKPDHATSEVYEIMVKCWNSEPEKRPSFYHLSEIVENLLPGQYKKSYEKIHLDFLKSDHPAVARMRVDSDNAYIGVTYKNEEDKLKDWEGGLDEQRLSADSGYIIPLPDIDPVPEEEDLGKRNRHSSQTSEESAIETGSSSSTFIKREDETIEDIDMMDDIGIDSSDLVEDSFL
T2 sequence (P10721 26-976): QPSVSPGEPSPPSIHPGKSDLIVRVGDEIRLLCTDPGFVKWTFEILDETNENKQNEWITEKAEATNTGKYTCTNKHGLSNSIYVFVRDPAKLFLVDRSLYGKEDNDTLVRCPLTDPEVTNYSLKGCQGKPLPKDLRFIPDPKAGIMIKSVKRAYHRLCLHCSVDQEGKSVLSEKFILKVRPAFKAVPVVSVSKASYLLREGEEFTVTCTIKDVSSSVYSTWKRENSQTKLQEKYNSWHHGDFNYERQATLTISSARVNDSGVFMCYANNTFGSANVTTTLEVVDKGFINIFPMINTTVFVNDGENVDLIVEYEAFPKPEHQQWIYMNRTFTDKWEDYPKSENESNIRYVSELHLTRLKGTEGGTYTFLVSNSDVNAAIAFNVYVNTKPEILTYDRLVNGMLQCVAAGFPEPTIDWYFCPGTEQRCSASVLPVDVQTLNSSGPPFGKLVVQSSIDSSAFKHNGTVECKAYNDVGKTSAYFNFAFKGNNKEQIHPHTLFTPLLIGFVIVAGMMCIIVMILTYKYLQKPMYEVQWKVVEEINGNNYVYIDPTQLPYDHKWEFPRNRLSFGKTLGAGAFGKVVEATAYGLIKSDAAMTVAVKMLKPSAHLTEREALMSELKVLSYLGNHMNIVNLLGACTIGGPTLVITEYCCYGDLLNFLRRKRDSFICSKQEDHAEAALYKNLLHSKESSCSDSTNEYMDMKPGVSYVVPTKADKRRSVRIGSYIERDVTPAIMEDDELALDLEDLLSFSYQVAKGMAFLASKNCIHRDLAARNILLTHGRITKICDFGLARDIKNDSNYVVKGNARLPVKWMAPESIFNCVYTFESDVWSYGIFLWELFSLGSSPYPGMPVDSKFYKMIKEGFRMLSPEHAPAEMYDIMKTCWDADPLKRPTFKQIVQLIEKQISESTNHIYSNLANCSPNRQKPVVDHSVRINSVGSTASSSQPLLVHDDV

In the case of `c1cc(Nc2ccc3[nH]ccc3c2)nc(Nc2ccc(N3CCOCC3)cc2)n1` [MKP109], the concentration for half-maximal inhibition (IC50) in [1] came to 50 nM; in [2] it was 240 nM.
On to `Fc1cc(Nc2nccc(Nc3ccc4[nH]ccc4c3)n2)cc(N2CCOCC2)c1` [MKP114], for which the figures for the IC50 in data set [1] and in [2] were 41 nM and 610 nM, respectively.
On to `CN(c1ccc2c(ccn2C)c1)c1ccnc(Nc2ccc(N3CCOCC3)cc2)n1` [MKP112], for which the IC50 in data set [1] was found to be 360 nM; in data set [2], 10100 nM.
`Cc1ccc(Nc2nccc(N(C)c3ccc4c(C)n(C)nc4c3)n2)cc1S(N)(=O)=O` [Pazopanib, 5-[[4-[(2,3-dimethyl-2H-indazol-6-yl)methylamino]-2-pyrimidinyl]amino]-2-methyl-benzenesulfonamide, reference compound]: the “Cytotoxicity in HUVECs” value is on record as “No cytotoxicity was observed” in data set [3] (1 μg/mL); “significant endothelial cytotoxicity” in data set [3] (5 and 10 μg/mL). Moreover, in data set [4], the “Effect on VEGF-induced increase in tube formation” value is recorded as “significantly inhibited”. Also, the “EGFR inhibition (in words)” value in data set [2] is listed as “did not inhibit EGFR; also recorded: no inhibitory effect against EGFR”.
Take `COc1cc(Nc2nccc(Nc3ccc4[nH]ccc4c3)n2)cc(N2CCOCC2)c1` [MKP116]: the IC50 in data set [1] came to 20 nM; in data set [2] it was 41 nM.
Regarding `CN(c1ccc2[nH]ccc2c1)c1cc(Nc2ccc(N3CCOCC3)cc2)ncn1` [MKP119], the concentration for half-maximal inhibition (IC50) in data set [1] is greater than 3000 nM; in [2], 35 nM.
Regarding `c1cc(Nc2ccc3[nH]ccc3c2)nc(Nc2ccc(OCCCCN3CCOCC3)cc2)n1` [MKP107], the IC50 in [1] was found to be 130 nM; in [2], 178 nM.
With `c1nc(Nc2ccc(N3CCOCC3)cc2)cc(Nc2ccc3[nH]ccc3c2)n1` [MKP118], the IC50 turned out to be 1200 nM in data set [1] and 7 nM in data set [2].
For `c1cc(Nc2ccc3[nH]ccc3c2)nc(Nc2ccc(OCCN3CCOCC3)cc2)n1` [MKP106] the same measures were 20 nM and 210 nM.
In the same order, the values of `Cn1ccc2cc(Nc3ccnc(Nc4ccc(N5CCOCC5)cc4)n3)ccc21` [MKP111] are 1570 nM and 2240 nM.
For the molecule `Cc1ccc(Nc2nccc(Oc3ccc4[nH]ccc4c3)n2)cc1S(N)(=O)=O` [MKP122], the inhibition at 1 µM in data set [5] came to 99 ± 1%; in [1], 96%; in [6] it was 83%; in data set [2], 35 ± 2%; in data set [7] it was 100%; in [8], 66%. For the same molecule, the inhibition at 1 µM in [9] came out at 65 ± 4%; in data set [10], 100%; in [11] it was 87 ± 1%; in data set [12], 92%. In addition, the IC50 in [1] came to 20 nM; in data set [2] it was 2040 nM.
Turning to `c1nc(Nc2ccc(N3CCOCC3)cc2)cc(Oc2ccc3[nH]ccc3c2)n1` [MKP120], the 50% inhibitory concentration (IC50) in data set [1] is 32 nM; in [2], 10 nM.
Regarding `Cc1ccc(Nc2nccc(N(C)c3ccc4cc[nH]c4c3)n2)cc1S(N)(=O)=O` [MKP105], the IC50 in data set [13] was 1460 nM. Besides, in data set [2], the inhibition at 1 µM stood at 47 ± 2%.
For `Cc1ccc(Nc2nccc(N(C)c3ccc4c(ccn4C)c3)n2)cc1S(N)(=O)=O` [MKP104] the same measures were 2680 nM and 20 ± 4%.
`c1cc(Nc2nccc(Nc3ccc4[nH]ccc4c3)n2)cc(N2CCOCC2)c1` [MKP110]: the IC50 in data set [1] was determined as 30 nM; in data set [2], 180 nM.
In the same order, the values of `Fc1cc(Nc2nccc(Nc3ccc4[nH]ccc4c3)n2)ccc1N1CCOCC1` [MKP113] are 30 nM and 1630 nM.
Regarding `Cc1cc2cc(N(C)c3ccnc(Nc4ccc(C)c(S(N)(=O)=O)c4)n3)ccc2[nH]1` [MKP103], the IC50 in data set [13] amounted to 1630 nM. For the same molecule, the inhibition at 1 µM in data set [2] came to 42 ± 4%.
Regarding `Cc1ccc(Nc2nccc(N(C)c3ccc4[nH]cc(C)c4c3)n2)cc1S(N)(=O)=O` [MKP102], the IC50 in data set [13] amounted to 197 nM; in data set [2], 55 nM. Also, the inhibition at 1 µM in [2] turned out to be 93 ± 2%.
As to `COc1cc(Nc2nccc(N(C)c3ccc4[nH]ccc4c3)n2)cc(N2CCOCC2)c1` [MKP117], the IC50 in data set [1] was found to be 17 nM; in data set [2] it was 33 nM.
For `CN(c1ccc2[nH]ccc2c1)c1ccnc(Nc2ccc(OCCCCN3CCOCC3)cc2)n1` [MKP108] the same measures were 26 nM and 200 nM.
For `COc1ccc(Nc2nccc(Nc3ccc4[nH]ccc4c3)n2)cc1N1CCOCC1` [MKP115] the same measures were 10 nM and 56 nM.
On to `Cc1ccc(Nc2cc(Oc3ccc4[nH]ccc4c3)ncn2)cc1S(N)(=O)=O` [MKP123], for which the inhibition at 1 µM in [5] amounted to 53 ± 9%; in data set [1], 97%; in data set [6], 20 ± 6%; in data set [2] it was 100%; in data set [7], 100%; in [8] it was 99 ± 1%. Moreover, the inhibition at 1 µM in data set [9] was 21 ± 2%; in [10] it was 99 ± 1%; in data set [11], 30 ± 3%; in [12] it was 44 ± 3%. Also, the values for the IC50 in [1] and in data set [2] were 45 nM and 18 nM, respectively.
Regarding `COc1ccc(Nc2cc(Oc3ccc4[nH]ccc4c3)ncn2)cc1N1CCOCC1` [MKP121], the inhibition at 1 µM is 70 ± 3% in data set [5]; 96% in data set [1]; 29 ± 5% in data set [6]; 94 ± 2% in data set [2]; 98% in [7]; 98% in [8]. Besides, the inhibition at 1 µM is 13 ± 4% in data set [9], 99 ± 2% in data set [10], 37 ± 1% in [11] and 48% in [12]. Also, the values for the half-maximal inhibitory concentration (IC50) in data set [1] and in data set [2] were 30 nM and 31 nM, respectively.
